# From US20210069194A1, “COMBINATION THERAPY FOR THE TREATMENT OF CANCER” (MingSight Pharmaceuticals, Inc., priority 2018, published 2021)
# Experiments:
# [1] = test system: IL-6 production in OCI-Ly3 cells; experiment: IL-6 assay (ELISA) in OCI-Ly3 cells; format: cell-based, Human; details: OCI-Ly3 cells (no activating CD79 mutation), 48 hours
# Experimental: (§1) TMD8 cells were grown in MEM media supplemented with 10% fetal calf serum (FCS), non-essential vitamin mix, and penicillin-streptomycin antibiotics (pen-strep). HBL1 cells were grown in RPMI-1640 media supplemented with 10% FCS and pen-strep. OCI-Ly3 cells were grown in DMEM media with 15% FCS, non-essential vitamin mix, pen-strep, and 25 mM HEPES buffer. Cells were maintained in suspension culture, fed twice weekly, and split 1:3 approximately every two weeks (TMD8, OCI-Ly3) or weekly (HBL1).
# (§2) Cells were harvested via centrifugation and resuspended twice to rinse the media of any IL-6. Cells were then plated in 96 well plates at 5×10^5 cells per well and exposed to increasing concentrations of Compound A, sotrastaurin, or media containing 0.1% DMSO (negative control). For each cell type, experiments were performed in the media used for growth and maintenance. Cells were allowed to grow for 48 hours after plating in the presence of inhibitors. Following compound exposure, cells were pelleted in the 96 well plate, supernatant was removed, and the concentration of IL-6 in the supernatant was determined using R&D Systems Haman IL-6 Quantikine® ELISA Kit (D6050) according to manufacturer's instructions.
# [2] = test system: OCI-Ly3 cells; experiment: Cell proliferation and survival assay (MTT), OCI-Ly3; format: cell-based, Human; details: 96 hours
# Experimental: (§3) TMD8 cells were grown in MEM media supplemented with 10% fetal calf serum (FCS), non-essential vitamin mix, and penicillin-streptomycin antibiotics (pen-strep). HBL1 cells were grown in RPMI-1640 media supplemented with 10% FCS and pen-strep. OCI-Ly3 cells were grown in DMEM media with 15% FCS, non-essential vitamin mix, pen-strep, and 25 mM HEPES buffer. Cells were maintained in suspension culture, fed twice weekly, and split 1:3 approximately every two weeks (TMD8, OCI-Ly3) or weekly (HBL1). Cells were cultured and maintained as described above, with cells always fed on the day prior to assay. Proliferation and survival of cells was quantified using an MTT assay kit according to manufacturer's instructions (Cell Proliferation Kit 1, Roche Diagnostics, Cat. No. 11 465 007 001). Experiments were performed in the same media used by each cell type for growth and maintenance. Cells (5×10^4) were plated in 96 well plates and allowed to grow for 96 hours in the presence of inhibitors. After the exposure period was completed, MTT reagent was added for 3-4 hours. The MTT solubilization reagent was then added to stop the reaction and cells were incubated overnight at 37° C. The plate read the next day according to the kit instructions.
# [3] = test system: IL-6 production in TMD8 cells; experiment: IL-6 assay (ELISA) in TMD8 cells; format: cell-based, Human; details: for Inhibition of IL-6 production: TMD8 cells (activating CD79 mutation), 48 hours
# Experimental: as §1, §2
# [4] = test system: TMD8 cells; experiment: Cell proliferation and survival assay (MTT), TMD8; format: cell-based, Human; details: for Inhibition of cell proliferation and survival: TMD8 cells, MTT, 96 hours
# Experimental: as §3
# [5] = TMD8 mouse xenograph model of DLBCL, body weight; format: in vivo, SCID mice; details: 120 mg/kg BID
# Experimental: (§4) To test the efficacy of Compound A in vivo, TMD8 cells were grown and subcutaneously injected into SCID mice. Large scale suspension culture of TMD8 cells was performed in T250 flasks, where cells were expanded weekly. Animals (n=24) were inoculated with 10×10^6 cells (10×10^6 cells in 100 μL volume of 50% Matrigel®) subcutaneously in the animal's right flank.
# [6] = test system: circulating lymphocytes; experiment: Peripheral lymphocyte levels in healthy humans, multiple ascending dose study; format: in vivo, human; details: healthy humans, 50, 100, 150, 200 mg BID, 14 days
# Experimental: Normal, healthy human patients received various doses of Compound A for 14 days of dosing. The dose levels were as follows: cohort 1: 50 mg, BID; cohort 2: 100 mg, BID; cohort 3, 150 mg, BID; and cohort 4,200 mg BID.
# [7] = test system: IL-6 production in HBL1 cells; experiment: IL-6 assay (ELISA) in HBL1 cells; format: cell-based, Human; details: HBL1 cells (activating CD79 mutation), 48 hours, data not shown
# [8] = test system: TMD8 cells; experiment: TMD8 mouse xenograph model of DLBCL, tumor volume; format: in vivo, SCID mice; details: 120 mg/kg BID
# Experimental: as §4
# [9] = test system: HBL1 cells; experiment: Cell proliferation and survival assay (MTT), HBL1; format: cell-based, Human; details: 96 hours, data not shown
# [10] = target: Human PKC delta (Homo sapiens, UniProt Q05655); experiment: PKC isoform inhibition in vitro assay, PKC delta; format: biochemical
# Chain of Human PKC delta (Q05655 whole entry, canonical isoform): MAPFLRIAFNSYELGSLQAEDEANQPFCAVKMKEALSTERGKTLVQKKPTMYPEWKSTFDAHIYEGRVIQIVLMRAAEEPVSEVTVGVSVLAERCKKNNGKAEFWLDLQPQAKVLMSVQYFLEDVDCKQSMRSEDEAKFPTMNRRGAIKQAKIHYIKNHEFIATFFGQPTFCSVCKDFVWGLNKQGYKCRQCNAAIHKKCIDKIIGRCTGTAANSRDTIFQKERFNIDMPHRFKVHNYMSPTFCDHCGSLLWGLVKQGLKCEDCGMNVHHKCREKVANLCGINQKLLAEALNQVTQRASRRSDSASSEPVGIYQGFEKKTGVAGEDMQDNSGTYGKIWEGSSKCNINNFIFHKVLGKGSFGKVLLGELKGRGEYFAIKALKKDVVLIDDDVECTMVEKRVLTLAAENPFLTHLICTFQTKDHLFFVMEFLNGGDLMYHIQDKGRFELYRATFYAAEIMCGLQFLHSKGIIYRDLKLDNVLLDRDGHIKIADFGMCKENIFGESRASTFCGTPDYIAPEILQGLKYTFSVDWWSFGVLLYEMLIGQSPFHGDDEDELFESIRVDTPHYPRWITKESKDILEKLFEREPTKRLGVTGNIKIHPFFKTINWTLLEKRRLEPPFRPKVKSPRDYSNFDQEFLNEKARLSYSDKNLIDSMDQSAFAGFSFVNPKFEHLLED
SMILES,Inhibition of IL-6 production [1],Inhibition of cell proliferation and survival [2],Inhibition of IL-6 production [3],Inhibition of cell proliferation and survival [4],Mean weight of vehicle treated group greater than Compound A treated animals by [5] [g],Body weight change ([5]; day 24-28),Number of circulating lymphocytes [6],Inhibition of IL-6 production [7],"Potency compared to sotrastaurin, IL-6 assay [3]","Potency compared to sotrastaurin, cell proliferation assay [4]",Mean tumor volume ([8]; study day 20) [mm^3],Mean tumor volume ([8]; study day 28) [mm^3],Increase of mean tumor volume ([8]; study days 20 to 28) [%],Tumor growth (in words) ([8]; study days 20 to 28),Inhibition of cell proliferation and survival [9],Inhibition of PKC delta (in words) [10]
"CN1CCN(c2nc(C3=C(c4c[nH]c5ccccc45)C(=O)NC3=O)c3ccccc3n2)CC1 [sotrastaurin, reference compound]",not affected,not affected by either compound except at the highest doses tested,dose dependent inhibition,dose dependent inhibition,–,–,–,–,–,–,–,–,–,–,–,–
"Cc1ncc(F)c(Nc2n[nH]c3c2CN(C(=O)N2C[C@@H](C)N(CC4CCOCC4)C[C@@H]2C)C3(C)C)n1 [Compound A, 5-{[(2S,5R)-2,5-Dimethyl-4-(tetrahydro-2H-pyran-4-ylmethyl)piperazin-1-yl]carbonyl}-N-(5-fluoro-2-methylpyrimidin-4-yl)-6,6-dimethyl-1,4,5,6-tetrahydropyrrolo[3,4-c]pyrazol-3-amine]",not affected,not affected by either compound except at the highest doses tested,dose-dependent inhibition,dose-dependent inhibition,1.8,no increase in body weight,dose dependent increase,dose-dependent inhibition,slightly more potent,modestly more potent,898,970,8,no appreciable amounts of tumor growth,dose-dependent inhibition,does not inhibit PKC delta to any appreciable degree
